Laboratory results from patent publication US20070179120A1, “HYDROXYL COMPOUNDS AND COMPOSITIONS FOR CHOLESTEROL MANAGEMENT AND RELATED USES” (ESPERION THERAPEUTICS, INC., priority 2003, published 2007).
Where two headings read alike, the source gives them in different places.

Columns and labels:
[1] = test system: primary rat hepatocytes; assay: Inhibition of lipid synthesis ([1-14C]-acetate incorporation) in primary rat hepatocytes; format: cell-based; details: Hepatocyte, 4 hours incubation, 0-300 μM
Description: Compounds were tested for inhibition of lipid synthesis in primary cultures of rat hepatocytes. Male Sprague-Dawley rats were anesthetized with intraperitoneal injection of sodium pentobarbital (80 mg/kg). Rat hepatocytes were isolated essentially as described by the method of Seglen (Seglen, P. O. Hepatocyte suspensions and cultures as tools in experimental carcinogenesis. J. Toxicol. Environ. Health 1979, 5, 551-560). Hepatocytes were suspended in Dulbecco's Modified Eagles Medium containing 25 mM D-glucose, 14 mM HEPES, 5 mM L-glutamine, 5 mM leucine, 5 mM alanine, 10 mM lactate, 1 mM pyruvate, 0.2% bovine serum albumin, 17.4 mM non-essential amino acids, 20% fetal bovine serum, 100 nM insulin and 20 μg/mL gentamycin) and plated at a density of 1.5×10^5 cells/cm^2 on collagen-coated 96-well plates. Four hours after plating, media was replaced with the same media without serum. Cells were grown overnight to allow formation of monolayer cultures. Lipid synthesis incubation conditions were initially assessed to ensure the linearity of [1-^14C]-acetate incorporation into hepatocyte lipids for up to 4 hours. Hepatocyte lipid synthesis inhibitory activity was assessed during incubations in the presence of 0.25 μCi [1-^14C]-acetate/well (final radiospecific activity in assay is 1 Ci/mol) and 0, 1, 3, 10, 30, 100 or 300 μM of compounds for 4 hours. At the end of the 4-hour incubation period, medium was discarded and cells were washed twice with ice-cold phosphate buffered saline and stored frozen prior to analysis. To determine total lipid synthesis, 170 μl of MicroScint-E® and 50 μl water was added to each well to extract and partition the lipid soluble products to the upper organic phase containing the scintillant. Lipid radioactivity was assessed by scintillation spectroscopy in a Packard TopCount NXT.

[2] = test system: obese female Zucker rats; assay: Oral daily treatment of obese female Zucker rats for fourteen days: serum lipids, glycemic control indicators, body weight; format: in vivo, rat; details: for change in vivo at 100 mg/kg/day / change in vivo at 100 mg/kg: Rattus norvegicus, 336 h; for change in vivo at 100 mg/kg/day: 100 mg/kg/day oral gavage, read-out: % wt. gain; for change in vivo at 100 mg/kg / HDL-C/non-HDL-C: 100 mg/kg/day oral; for HDL-C/non-HDL-C: serum ratio
Description: In a number of different experiments, illustrative compounds of the invention are administered daily at a dose of up to 100 mg/kg to chow fed obese female Zucker rats for fourteen days in the morning by oral gavage in 1.5% carboxymethylcellulose/0.2% Tween 20 or 20% ethanol/80% polyethylene glycol (dosing vehicles). Animals are weighed daily. Animals are allowed free access to rodent chow and water throughout the study except on days of blood sampling where food is restricted for six hours prior to blood sampling. Blood glucose is determined after the 6 hour fast in the afternoon without anesthesia from a tail vein. Serum is also prepared from pretreatment blood samples subsequently obtained from the orbital venous plexus (with O2/CO2 anesthesia) and following the fourteenth dose at sacrifice from the heart following O2/CO2 anesthesia. Serums are assayed for lipoprotein cholesterol profiles, triglycerides, total cholesterol, Non-HDL cholesterol, HDL cholesterol, the ratio of HDL cholesterol to that of Non-HDL cholesterol, insulin, non-esterified fatty acids, and beta-hydroxy butyric acid. The percent body weight gain and the ratio of liver to body weight is also determined. These are shown as absolute values or as a percent change of the pretreatment values in Table 1 for compounds A-K and in Table 2 for compounds L-M. [drawing 111]

[3] = test system: female Syrian hamsters; assay: Chow-fed female Syrian hamsters, 3 weeks of oral dosing: lipoprotein cholesterol, triglycerides, glucose, insulin, body weight, bile acids; format: in vivo; details: chow-fed hamster, 100 mg/kg/day oral, 3 weeks of dosing
Description: Ten week old female Syrian hamsters were acclimated for 21 days to a shortened light and dark cycle (10 hours of light/14 hours of darkness). During the acclimation and drug intervention period animals were allowed free access to rodent chow (Purina 5001) and water except for a 6 hour period prior to blood sampling. Following the 21 day acclimation period ESP 55015 was administered daily for three weeks, between 8 10 AM, at a dose of 100 mg/Kg by oral gavage in a dosing vehicle consisting of 20% Ethanol/80% Polyethylene glycol 200 [v/v]. Prior to and in the afternoon following the 13th and 21st doses blood samples were collected, between 2 PM and 4 PM, by administering O2/CO2 anesthesia and bleeding from the orbital venous plexus. All blood samples were processed for separation of serum. Serum samples were subsequently assayed for total cholesterol, total cholesterol lipoprotein profiles (HDL cholesterol, LDL cholesterol and VLDL cholesterol), the ratio of HDL cholesterol, LDL cholesterol and VLDL cholesterol), the ratio of HDL cholesterol to non HDL cholesterol (LDL C, VLDL C) and triglycerides (Table 4). Percent body weight gain and ratio of liver weight to body weight were also determined.

[4] = blood glucose after 6 hour fast, read-out: Glucose (Percent of Pre-treatment)
[5] = serum beta-hydroxy butyric acid, read-out: BHA (Percent of Pre-treatment)
[6] = serum non-esterified fatty acids, read-out: NEFA (Percent of Pre-treatment)
[7] = serum total cholesterol, read-out: TC (Percent of Pre-treatment)
[8] = serum triglycerides, read-out: TG (Percent of Pre-treatment)
[9] = serum, read-out: HDL-C (Percent of Pre-treatment)
[10] = serum, read-out: Insulin (Percent of Pre-treatment)
[11] = serum, read-out: Non-HDL-C (Percent of Pre-treatment)

SMILES | melting point | IC50 [1] | change in vivo at 100 mg/kg/day [2] | change in vivo at 100 mg/kg [2, 4] | change in vivo at 100 mg/kg [2, 5] | change in vivo at 100 mg/kg [2, 6] | change in vivo at 100 mg/kg [2, 7] | change in vivo at 100 mg/kg [2, 8] | change in vivo at 100 mg/kg [2, 9] | change in vivo at 100 mg/kg [2, 10] | change in vivo at 100 mg/kg [2, 11] | HDL-C/non-HDL-C [2] | Bile Acids [3] | Body wt. [3] | Glucose [3] | Insulin [3] | HDL-C ([3]; serum) | LDL-C ([3]; serum) | TG ([3]; serum) | VLDL-C ([3]; serum)
CC(C)(CCCCCC(O)CCCCCC(C)(C)CC(=O)c1cccnc1)COC(=O)c1cccnc1 (stereo not drawn) [Compound 6.37, Nicotinic acid 8-hydroxy-2,2,14,14-tetramethyl-15-nicotinoylpentadecyl ester] | 65 to 67 °C |  |  |  |  |  |  |  |  |  |  |  |  |  |  |  |  |  |  | 
CC(C)(CO)CCCCCCC(O)CCCCCCC(C)(C)CO [Compound 6.32, 2,2,16,16-Tetramethylheptadecane-1,9,17-triol] | 75 to 77 °C |  |  |  |  |  |  |  |  |  |  |  |  |  |  |  |  |  |  | 
CC(C)(CCCCC(O)CCCC(C)(C)C(=O)O)C(=O)O (stereo not drawn) [E] |  | 8.3 µM |  |  |  |  |  |  |  |  |  |  |  |  |  |  |  |  |  | 
CC(C)(CO)CCCCCCC(O)CCCCCCC(C)(C)CO [G] |  | 7.8 µM | 9% | 14% | 163% | -62% | 21% | -80% | 68% | -38% | -68% | 12 |  |  |  |  |  |  |  | 
CC(C)(CCCCC(O)CCCCC(C)(C)C(=O)O)C(=O)O [A] |  | 3.4 µM | 12% | -2% | 231% | -11% | 14% | -59% | 50% | 43% | -41% | 5 |  |  |  |  |  |  |  | 
CC(C)(CO)CCCCCC(O)CCCCC(C)(C)CO (stereo not drawn) [Compound 6.27, 2,2,13,13-Tetramethyltetradecane-1,7,14-triol] | 79 to 80 °C |  |  |  |  |  |  |  |  |  |  |  |  |  |  |  |  |  |  | 
CC(C)(CO)CCCCCC(O)CCCCC(C)(C)CO (stereo not drawn) [D] |  | 1.6 µM |  |  |  |  |  |  |  |  |  |  |  |  |  |  |  |  |  | 
CC(C)(CCCCCC(O)CCCCCC(C)(C)C(=O)O)C(=O)O [C] |  | 1 µM | 3% | -11% | 171% | -42% | 105% | -90% | 169% | -57% | -80% | 40 |  |  |  |  |  |  |  | 
CC(C)(CO)CCCCC(O)CCCCC(C)(C)C(=O)O (stereo not drawn) [Compound I] |  | 2.3 µM |  |  |  |  |  |  |  |  |  |  |  |  |  |  |  |  |  | 
CC(C)(CO)CCCCC(CO)CCCCC(C)(C)CO [J] |  | 17 µM | 12% | 21% | 183% | -32% | -6% | -23% | -2% | -11% | -12% | 2 |  |  |  |  |  |  |  | 
CCCCC(O)CCCCCC(C)(C)C(=O)O (stereo not drawn) [L] |  |  | 12% | 13% | 88% | -27% | -3% | -37% | -2% | -37% | -11% | 4 |  |  |  |  |  |  |  | 
CC(C)(CO)CCCCCCCC(O)CCCCCCCC(C)(C)CO [H] |  | 2.6 µM | 9% | 19% | 97% | -30% | 61% | -36% | 115% | -30% | -5% | 3 |  |  |  |  |  |  |  | 
CC(C)(CO)CCCCC(O)CCCCC(C)(C)CO [F] |  | 6.4 µM | 3% | 10% |  | -43% | 53% | -46% | 222% | -4% | -15% | 2 |  |  |  |  |  |  |  | 
CC(C)(CO)CCCCCC(O)CCCCCC(C)(C)CO [Compound B] |  | 5.1 µM | 1% | -3% | 199% | -28% | 105% | -87% | 237% | -52% | -81% | 35 | 67,108 ± 17,529 ng/ml | 146 ± 2 gm | 122 ± 3 | 2.4 ± 0.7 | 63 ± 4 mg/dL | 44 ± 4 mg/dL | 128 ± 37 mg/dL | 4 ± 2 mg/dL
CC(C)(CCCCC(CO)CCCCC(C)(C)C(=O)O)C(=O)O [K] |  | 14 µM | 10% | 3% | 253% | -32% | 35% | -45% | 62% | 41% | -38% | 9 |  |  |  |  |  |  |  | 
